Among the data in the NIST ThermoML archive (doi:10.1021/acs.jced.5b00594) are mass density values, retold here.

A short description of the series: wn = mass fraction of the nth substance listed. As to conditions: 313.15 K, 100 kPa, Liquid, Pycnometric method.

SMILES strings stand for the structures. Numbers after ± are expanded uncertainties.

For orientation: mass density means mass per unit of volume. For `O=S(=O)([O-])O.[K+]` [hydrogen potassium sulfate] + O=S(=O)(O)O, the mass density (w2 = 0.6151) was found to be 1832 ± 6 kg/m3.
In the case of `O=S(=O)([O-])O.[K+]` [hydrogen potassium sulfate] + O, the mass density (w1 = 0.4722) came to 1391 ± 4 kg/m3.
